# Measurements reported in patent US20210386791A1, “METHODS OF CELLULAR REPROGRAMMING” (TissueTech, Inc., priority 2018, published 2021).
# Tested on: human corneal fibroblasts (HCF)
# Experiment: P3 HCF on plastic with or without immobilized HA or HC-HA/PTX3, with or without TGFβ1: mRNA, ELISA, Western blot, immunostaining
# Assay type: cell-based
# Method: A total of 89 human corneas from individuals aged 18-76 years and maintained at 4° C. in Optisol (Chiron Vision, Irvine, Calif.) for less than 7 days after death were obtained from the Florida Lions Eye Bank (Miami, Fla.) and handled according to the declaration of Helsinki. HCF were isolated and cultured. Epithelial and endothelial cells were removed from corneas, the stroma was cut into cubes of approximately 1 mm^3, incubated in 2 mg/ml collagenase for 16 h at 37° C., and then placed in a culture medium consisting of Dulbecco's modified Eagle's medium (DMEM) supplemented with 10% fetal bovine serum containing […]. The culture medium was changed twice a week. The morphology of the cells was monitored by Nikon Eclipse TS 100 microscope (Melville, N.Y.). Cells cultured to passage 3 (P3) were used for all experiments.
# Human corneal fibroblasts (P3) were seeded on plastics with or without immobilized HC-HA/PTX3 complex for 72 h in DMEM+10% FBS, then serum starved for 24 h and treated with or without TGFβ1 for 24 h before being harvested for mRNA quantitation or immunostaining. For determination of protein of TGFβ receptor or p75NTR, the cells were treated with or without TGF-β1 for 48 h before collection of protein samples because the protein expression lags behind mRNA expression. For TGF-β1 ELISA, the cells were treated with or without TGF-β1 for 24 h, and then cultured in the fresh medium for another 24 h. The supernatants were collected for TGFβ1 ELISA. For TGFβ2 and TGFβ3 ELISA, the cells were treated with or without TGFβ1 for 48 h. Certain HCF were seeded on glass in DMEM+10% FBS for 24 h, then in DMEM+ITS (insulin-transferrin-selenium) for 24 h, treated with/without PBS or hyaluronic acid (HA) or HC-HA/PTX3±TGFβ1 (10 ng/ml)±Marimastat (10 μM) or ±DAPT (10 μM) or ±both for 0, 5, 15, 30 and 45 minutes before being harvested for immunostaining of CD44-ICD, JNK1, Cyclin D1 and p75NTR and for 5 minutes before being harvested for Western blotting of cytoplasmic and nuclear CD44-ICD, active MT1-MMP, and active γ-secretase after compartmental separation of the cellular components.
# Total RNAs were extracted using RNeasy Mini Kit and were reverse transcribed using High Capacity Reverse Transcription Kit (Applied Biosystems). cDNA obtained was amplified by real-time RT-PCR using specific primer-probe mixtures and DNA polymerase in 7000 Real-time PCR System (Thermo-Fisher Scientific, Carlsbad, Calif.). Real-time RT-PCR profile consisted of 10 minutes of initial activation at 95° C., followed by 40 cycles of 15 seconds denaturation at 95° C., and 1 min annealing and 1 min extension at 60° C. The genuine identity of each PCR product was confirmed by the size determination using 2% agarose gels followed by ethidium bromide staining together with PCR marker according to EC3 Imaging System (BioImaging System, Upland, Calif.).
# The Quantikine Human ELISA Kits of TGFβs were used for determination of TGFβs following the manufacturer's instructions (R and D Systems, Minneapolis, Minn.).
# HCF, induced human corneal endothelial cells (HCEC), and HCEC monolayer cultures were air-dried and fixed in 4% formaldehyde, pH 7.0, for 15 min at room temperature, rehydrated in PBS, incubated with 0.2% Triton X-100 for 15 min, and rinsed three times with PBS for 5 min each. After incubation with 2% BSA to block non-specific staining for 30 min, they were incubated with the desired first antibody (all at 1:50 dilution) for 16 h at 4° C. After three washes with PBS, they were incubated with corresponding Alexa-Fluor-conjugated secondary IgG (all 1:100 dilutions) for 60 min. The samples were then counterstained with Hoechst 33342 and analyzed with Zeiss LSM 700 confocal microscope (Thornhood, N.Y.). Corresponding mouse and rabbit sera were used as negative controls for primary monoclonal and polyclonal antibodies, respectively. […]
substance,measurement,setting,value
hyaluronic acid [HA],"expression of NC markers (p75NTR, HNK1, Sox9, KLF4, Snail1, MSX1)",absence of TGFβ1,only upregulated expression of HNK1
same,keratocan mRNA and protein,absence of TGFβ1,upregulated mRNA but not protein of keratocan
same,TGFβ1 mRNA and protein level,after exogenous TGFβ1 (10 ng/ml),upregulated
same,nuclear translocation of pSMAD2/3 and cytoplasmic expression of α-SMA,exogenous TGFβ1,caused nuclear translocation of pSMAD2/3 and positive cytoplasmic expression of α-SMA
same,cell shape / aggregation of P3 HCF,"immobilized substrate, DMEM+10% FBS, 24 h",spindle in shape
same,keratocan upregulation,presence of TGF-β1,upregulation disappeared
same,"NC marker mRNA, p75NTR protein and p75NTR nuclear translocation",with TGFβ1,further upregulated without p75NTR nuclear translocation
